Experimental data taken from ChEMBL document CHEMBL4507263, “Data for DCP probe BAY-474” (2021).

How the values were obtained:
[1] = biological target: Serine/threonine-protein kinase D2 (Homo sapiens) (UniProt Q9BZL6); experiment: PKD2 (h) Millipore kinase activity assay; conditions: Compound concentration 1.0 uM
[2] = biological target: Serine/threonine-protein kinase ULK3 (Homo sapiens) (UniProt Q6PHR2); experiment: ULK3 (h) Millipore kinase activity assay; conditions: Compound concentration 1.0 uM
[3] = biological target: Fibroblast growth factor receptor 2 (Homo sapiens) (UniProt P21802); experiment: FGFR2 (h) Millipore kinase activity assay; conditions: Compound concentration 1.0 uM
[4] = biological target: T1, cGMP-dependent protein kinase 1 (Homo sapiens) (UniProt Q13976); experiment: PKG1beta (h) Millipore kinase activity assay; conditions: Compound concentration 1.0 uM
T1 sequence (whole entry): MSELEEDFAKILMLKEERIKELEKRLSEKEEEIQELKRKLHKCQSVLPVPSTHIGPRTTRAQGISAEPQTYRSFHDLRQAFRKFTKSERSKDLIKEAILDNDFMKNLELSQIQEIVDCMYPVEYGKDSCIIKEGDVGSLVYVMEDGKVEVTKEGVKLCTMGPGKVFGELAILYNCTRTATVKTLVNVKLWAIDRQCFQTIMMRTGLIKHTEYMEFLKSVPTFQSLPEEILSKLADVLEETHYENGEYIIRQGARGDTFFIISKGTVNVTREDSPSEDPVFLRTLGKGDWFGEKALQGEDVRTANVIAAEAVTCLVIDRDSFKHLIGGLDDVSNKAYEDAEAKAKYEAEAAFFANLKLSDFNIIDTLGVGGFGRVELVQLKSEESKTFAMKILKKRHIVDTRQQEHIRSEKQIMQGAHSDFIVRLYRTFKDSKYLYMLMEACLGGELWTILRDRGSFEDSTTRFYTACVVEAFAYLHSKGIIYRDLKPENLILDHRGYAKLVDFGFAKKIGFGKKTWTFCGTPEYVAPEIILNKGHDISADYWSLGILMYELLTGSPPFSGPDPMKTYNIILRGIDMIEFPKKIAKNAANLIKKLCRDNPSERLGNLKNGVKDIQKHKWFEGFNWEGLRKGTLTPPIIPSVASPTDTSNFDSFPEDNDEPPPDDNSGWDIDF

[5] = biological target: Epidermal growth factor receptor (Homo sapiens) (UniProt P00533); experiment: Inhibition of Epidermal Growth Factor (EGF) at 10 µM in the Eurofins-Panlabs radioligand binding assay (Eurofins_assay_225510); conditions: Compound concentration 10.0 uM
[6] = biological target: Serine/threonine-protein kinase WNK3 (Homo sapiens) (UniProt Q9BYP7); experiment: WNK3 (h) Millipore kinase activity assay; conditions: Compound concentration 1.0 uM
Chain of Serine/threonine-protein kinase WNK3 (Homo sapiens) (Q9BYP7 whole entry): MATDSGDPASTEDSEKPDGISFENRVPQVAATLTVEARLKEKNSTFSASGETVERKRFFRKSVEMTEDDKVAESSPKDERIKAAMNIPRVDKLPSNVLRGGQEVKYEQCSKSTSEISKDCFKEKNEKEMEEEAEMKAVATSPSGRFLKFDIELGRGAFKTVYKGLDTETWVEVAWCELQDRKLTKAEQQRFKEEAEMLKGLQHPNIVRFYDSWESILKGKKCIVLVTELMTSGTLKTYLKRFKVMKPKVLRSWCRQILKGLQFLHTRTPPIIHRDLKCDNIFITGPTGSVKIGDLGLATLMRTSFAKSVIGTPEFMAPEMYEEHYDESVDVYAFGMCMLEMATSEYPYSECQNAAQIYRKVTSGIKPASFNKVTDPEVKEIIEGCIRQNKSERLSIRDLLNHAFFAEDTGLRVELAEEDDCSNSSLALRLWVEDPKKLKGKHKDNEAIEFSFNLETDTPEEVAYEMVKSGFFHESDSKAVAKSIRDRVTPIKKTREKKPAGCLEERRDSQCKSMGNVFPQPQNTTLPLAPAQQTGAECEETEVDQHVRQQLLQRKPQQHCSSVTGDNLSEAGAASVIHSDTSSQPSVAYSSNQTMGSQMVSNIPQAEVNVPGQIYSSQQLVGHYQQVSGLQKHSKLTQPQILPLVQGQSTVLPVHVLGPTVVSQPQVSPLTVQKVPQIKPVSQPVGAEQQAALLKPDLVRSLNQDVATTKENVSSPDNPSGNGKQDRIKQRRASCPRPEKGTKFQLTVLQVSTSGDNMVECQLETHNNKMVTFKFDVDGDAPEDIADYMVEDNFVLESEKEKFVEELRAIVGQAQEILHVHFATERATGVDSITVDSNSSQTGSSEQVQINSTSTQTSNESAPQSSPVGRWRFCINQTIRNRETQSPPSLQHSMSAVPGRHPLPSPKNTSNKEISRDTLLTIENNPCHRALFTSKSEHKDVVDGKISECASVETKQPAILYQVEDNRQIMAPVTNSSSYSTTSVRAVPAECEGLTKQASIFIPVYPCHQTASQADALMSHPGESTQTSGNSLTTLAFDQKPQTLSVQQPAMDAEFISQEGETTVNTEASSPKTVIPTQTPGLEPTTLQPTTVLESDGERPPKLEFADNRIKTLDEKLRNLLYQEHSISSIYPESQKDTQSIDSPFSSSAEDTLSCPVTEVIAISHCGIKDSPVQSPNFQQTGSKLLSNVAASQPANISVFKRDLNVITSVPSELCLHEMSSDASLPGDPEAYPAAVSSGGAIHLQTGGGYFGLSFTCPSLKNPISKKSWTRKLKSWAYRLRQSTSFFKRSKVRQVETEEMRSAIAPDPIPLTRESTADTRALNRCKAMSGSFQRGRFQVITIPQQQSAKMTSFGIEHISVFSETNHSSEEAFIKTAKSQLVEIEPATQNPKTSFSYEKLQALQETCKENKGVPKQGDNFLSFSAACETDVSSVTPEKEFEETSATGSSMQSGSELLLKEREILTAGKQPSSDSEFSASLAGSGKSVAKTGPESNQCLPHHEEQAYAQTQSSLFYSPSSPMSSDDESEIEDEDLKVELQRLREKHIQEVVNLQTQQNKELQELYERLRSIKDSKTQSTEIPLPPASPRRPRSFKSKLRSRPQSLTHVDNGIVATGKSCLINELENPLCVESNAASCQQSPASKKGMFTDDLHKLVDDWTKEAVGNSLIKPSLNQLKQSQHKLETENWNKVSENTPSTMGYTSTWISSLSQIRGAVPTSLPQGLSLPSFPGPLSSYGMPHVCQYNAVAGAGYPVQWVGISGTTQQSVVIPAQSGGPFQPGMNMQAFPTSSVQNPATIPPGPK

[7] = biological target: Mitogen-activated protein kinase 12 (Homo sapiens) (UniProt P53778); experiment: SAPK3 (h) Millipore kinase activity assay; conditions: Compound concentration 1.0 uM
Rattus norvegicus = species on record: Rattus norvegicus; experiment: Testosterone Eurofins-Panlabs radioligand binding assay; parameters: ligand concentration 1.5 nM; conditions: Compound concentration 10.0 uM
[8] = biological target: Myosin-IIIa (Homo sapiens) (UniProt Q8NEV4); conditions: Compound concentration 1000.0 nM
[9] = biological target: Homeodomain-interacting protein kinase 4 (Homo sapiens) (UniProt Q8NE63); conditions: Compound concentration 1000.0 nM
[10] = biological target: Serine/threonine-protein kinase WNK3 (Homo sapiens) (UniProt Q9BYP7); conditions: Compound concentration 1000.0 nM
[11] = biological target: Ephrin type-A receptor 6 (Homo sapiens) (UniProt Q9UF33); conditions: Compound concentration 1000.0 nM
[12] = tested on: Proto-oncogene tyrosine-protein kinase receptor Ret (Homo sapiens), P07949 [V804L]; conditions: Compound concentration 1000.0 nM
Chain of Proto-oncogene tyrosine-protein kinase receptor Ret (Homo sapiens), P07949 [V804L] (P07949 whole entry V804L): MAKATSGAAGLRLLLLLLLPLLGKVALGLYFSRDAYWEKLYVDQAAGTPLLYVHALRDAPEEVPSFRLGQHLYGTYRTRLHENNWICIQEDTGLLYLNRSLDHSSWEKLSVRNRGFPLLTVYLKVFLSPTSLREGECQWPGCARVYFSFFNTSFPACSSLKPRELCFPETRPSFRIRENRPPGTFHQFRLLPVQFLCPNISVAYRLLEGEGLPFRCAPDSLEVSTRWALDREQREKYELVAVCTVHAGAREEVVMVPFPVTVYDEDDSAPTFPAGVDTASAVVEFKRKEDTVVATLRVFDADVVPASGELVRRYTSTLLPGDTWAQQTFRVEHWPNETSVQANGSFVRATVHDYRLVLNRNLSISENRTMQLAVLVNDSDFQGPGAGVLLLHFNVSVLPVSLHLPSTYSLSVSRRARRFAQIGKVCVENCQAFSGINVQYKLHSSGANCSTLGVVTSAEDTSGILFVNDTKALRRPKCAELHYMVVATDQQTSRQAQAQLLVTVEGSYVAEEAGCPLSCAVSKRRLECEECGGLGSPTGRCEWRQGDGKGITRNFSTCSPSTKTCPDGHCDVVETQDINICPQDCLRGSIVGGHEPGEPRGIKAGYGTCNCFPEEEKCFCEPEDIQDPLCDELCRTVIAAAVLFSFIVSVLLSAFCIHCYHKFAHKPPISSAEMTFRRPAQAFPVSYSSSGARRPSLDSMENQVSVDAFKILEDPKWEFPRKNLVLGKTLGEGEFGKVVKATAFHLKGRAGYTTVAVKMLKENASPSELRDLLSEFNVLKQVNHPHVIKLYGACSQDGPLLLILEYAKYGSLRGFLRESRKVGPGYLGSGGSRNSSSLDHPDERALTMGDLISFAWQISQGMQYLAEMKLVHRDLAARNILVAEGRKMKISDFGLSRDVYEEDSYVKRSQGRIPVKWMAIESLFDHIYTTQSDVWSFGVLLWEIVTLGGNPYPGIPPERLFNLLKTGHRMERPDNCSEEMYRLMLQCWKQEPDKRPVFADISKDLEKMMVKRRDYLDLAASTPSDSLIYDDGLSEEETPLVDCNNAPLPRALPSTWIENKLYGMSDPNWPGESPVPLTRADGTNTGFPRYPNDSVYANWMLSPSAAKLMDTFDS

[13] = biological target: Tyrosine-protein kinase HCK (Homo sapiens) (UniProt P08631); conditions: Compound concentration 1000.0 nM
[14] = biological target: Macrophage colony-stimulating factor 1 receptor (Homo sapiens) (UniProt P07333); conditions: Compound concentration 1000.0 nM
[15] = biological target: Serine/threonine-protein kinase PLK1 (Homo sapiens) (UniProt P53350); conditions: Compound concentration 1000.0 nM
[16] = biological target: Dual specificity mitogen-activated protein kinase kinase 2 (Homo sapiens) (UniProt P36507); conditions: Compound concentration 1000.0 nM
[17] = biological target: TRAF2 and NCK-interacting protein kinase (Homo sapiens) (UniProt Q9UKE5); conditions: Compound concentration 1000.0 nM
[18] = biological target: Myosin light chain kinase family member 4 (Homo sapiens) (UniProt Q86YV6); conditions: Compound concentration 1000.0 nM
[19] = biological target: Ribosomal protein S6 kinase alpha-5 (Homo sapiens) (UniProt O75582); conditions: Compound concentration 1000.0 nM
[20] = biological target: Phosphatidylinositol 5-phosphate 4-kinase type-2 beta (Homo sapiens) (UniProt P78356); conditions: Compound concentration 1000.0 nM
[21] = biological target: Glycogen synthase kinase-3 alpha (Homo sapiens) (UniProt P49840); conditions: Compound concentration 1000.0 nM
[22] = biological target: Beta-adrenergic receptor kinase 1 (Homo sapiens) (UniProt P25098); conditions: Compound concentration 1000.0 nM
[23] = biological target: Platelet-derived growth factor receptor beta (Homo sapiens) (UniProt P09619); conditions: Compound concentration 1000.0 nM
[24] = biological target: Testis-specific serine/threonine-protein kinase 1 (Homo sapiens) (UniProt Q9BXA7); conditions: Compound concentration 1000.0 nM
[25] = biological target: Inhibitor of nuclear factor kappa-B kinase subunit beta (Homo sapiens) (UniProt O14920); conditions: Compound concentration 1000.0 nM
[26] = tested on: Epidermal growth factor receptor (Homo sapiens), P00533 [L861Q]; conditions: Compound concentration 1000.0 nM
[27] = biological target: Serine/threonine-protein kinase Nek9 (Homo sapiens) (UniProt Q8TD19); conditions: Compound concentration 1000.0 nM
[28] = biological target: Serine/threonine-protein kinase MRCK beta (Homo sapiens) (UniProt Q9Y5S2); conditions: Compound concentration 1000.0 nM
Chain of Serine/threonine-protein kinase MRCK beta (Homo sapiens) (Q9Y5S2 whole entry): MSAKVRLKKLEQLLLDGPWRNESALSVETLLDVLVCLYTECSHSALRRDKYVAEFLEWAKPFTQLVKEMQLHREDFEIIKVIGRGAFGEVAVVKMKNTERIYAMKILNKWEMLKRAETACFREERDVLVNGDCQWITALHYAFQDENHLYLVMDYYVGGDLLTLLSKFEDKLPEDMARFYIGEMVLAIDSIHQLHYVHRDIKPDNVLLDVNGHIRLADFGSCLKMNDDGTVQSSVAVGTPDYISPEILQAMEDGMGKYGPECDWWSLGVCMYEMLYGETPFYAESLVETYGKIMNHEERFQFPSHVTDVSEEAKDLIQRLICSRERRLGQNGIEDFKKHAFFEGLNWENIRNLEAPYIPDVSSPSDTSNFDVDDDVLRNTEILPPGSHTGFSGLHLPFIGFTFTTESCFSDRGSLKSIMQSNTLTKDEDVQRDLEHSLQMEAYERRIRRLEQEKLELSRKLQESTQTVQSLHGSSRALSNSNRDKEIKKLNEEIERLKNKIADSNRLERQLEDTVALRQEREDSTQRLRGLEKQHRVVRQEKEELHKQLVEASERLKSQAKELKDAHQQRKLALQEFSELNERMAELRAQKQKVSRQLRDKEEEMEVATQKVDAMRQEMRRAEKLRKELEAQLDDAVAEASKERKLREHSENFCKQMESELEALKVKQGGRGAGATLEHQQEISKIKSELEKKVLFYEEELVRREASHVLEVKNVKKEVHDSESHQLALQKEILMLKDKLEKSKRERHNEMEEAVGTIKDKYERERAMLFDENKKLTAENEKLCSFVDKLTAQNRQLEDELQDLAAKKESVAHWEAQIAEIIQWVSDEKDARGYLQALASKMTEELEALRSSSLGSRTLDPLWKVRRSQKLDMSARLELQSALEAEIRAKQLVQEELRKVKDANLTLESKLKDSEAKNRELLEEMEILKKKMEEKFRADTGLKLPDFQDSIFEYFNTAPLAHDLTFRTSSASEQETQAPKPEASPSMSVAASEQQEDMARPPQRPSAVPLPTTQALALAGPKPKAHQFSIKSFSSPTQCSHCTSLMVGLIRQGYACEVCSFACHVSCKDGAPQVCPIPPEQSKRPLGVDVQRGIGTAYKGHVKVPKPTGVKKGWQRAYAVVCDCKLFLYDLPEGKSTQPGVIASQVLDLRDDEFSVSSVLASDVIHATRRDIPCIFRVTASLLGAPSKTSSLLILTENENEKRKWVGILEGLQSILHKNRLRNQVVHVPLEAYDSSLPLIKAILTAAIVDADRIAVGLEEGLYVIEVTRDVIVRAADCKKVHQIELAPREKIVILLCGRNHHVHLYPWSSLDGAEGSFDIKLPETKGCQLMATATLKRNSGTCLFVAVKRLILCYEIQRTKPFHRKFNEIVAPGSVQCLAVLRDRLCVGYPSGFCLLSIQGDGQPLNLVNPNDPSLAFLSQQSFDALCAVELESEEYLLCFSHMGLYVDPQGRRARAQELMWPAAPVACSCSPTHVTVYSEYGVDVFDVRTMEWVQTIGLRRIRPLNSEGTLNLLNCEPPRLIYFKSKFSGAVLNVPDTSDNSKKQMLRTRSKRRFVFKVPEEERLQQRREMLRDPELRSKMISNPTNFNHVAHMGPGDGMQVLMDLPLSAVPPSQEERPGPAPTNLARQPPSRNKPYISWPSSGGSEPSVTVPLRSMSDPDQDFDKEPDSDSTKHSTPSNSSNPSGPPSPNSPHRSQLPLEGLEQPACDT

[29] = biological target: Myosin light chain kinase 2, skeletal/cardiac muscle (Homo sapiens) (UniProt Q9H1R3); conditions: Compound concentration 1000.0 nM
[30] = biological target: Inhibitor of nuclear factor kappa-B kinase subunit alpha (Homo sapiens) (UniProt O15111); conditions: Compound concentration 1000.0 nM
[31] = biological target: G protein-coupled receptor kinase 3 (Homo sapiens) (UniProt P35626); conditions: Compound concentration 1000.0 nM
[32] = tested on: Epidermal growth factor receptor (Homo sapiens), P00533 [L858R]; conditions: Compound concentration 1000.0 nM
[33] = biological target: Casein kinase I isoform gamma-1 (Homo sapiens) (UniProt Q9HCP0); conditions: Compound concentration 1000.0 nM
Chain of Casein kinase I isoform gamma-1 (Homo sapiens) (Q9HCP0 whole entry, looked up, canonical isoform): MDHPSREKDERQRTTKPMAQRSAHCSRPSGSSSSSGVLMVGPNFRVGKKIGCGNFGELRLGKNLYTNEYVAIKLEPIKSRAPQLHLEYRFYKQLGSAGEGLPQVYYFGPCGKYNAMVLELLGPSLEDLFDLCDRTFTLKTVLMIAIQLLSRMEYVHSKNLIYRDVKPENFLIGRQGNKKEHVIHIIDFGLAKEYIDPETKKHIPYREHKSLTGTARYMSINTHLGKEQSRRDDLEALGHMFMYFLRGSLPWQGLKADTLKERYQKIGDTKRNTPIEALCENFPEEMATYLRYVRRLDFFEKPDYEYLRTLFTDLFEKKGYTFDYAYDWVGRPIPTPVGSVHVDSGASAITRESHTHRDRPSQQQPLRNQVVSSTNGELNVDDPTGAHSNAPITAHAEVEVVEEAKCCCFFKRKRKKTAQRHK

[34] = biological target: Cyclin-dependent kinase 13 (Homo sapiens) (UniProt Q14004); conditions: Compound concentration 1000.0 nM
[35] = biological target: Ephrin type-A receptor 1 (Homo sapiens) (UniProt P21709); conditions: Compound concentration 1000.0 nM

CC1=C(C#N)C(c2ccc3[nH]nc(C)c3c2)C(C#N)=C(C)N1 [BAY-474]
inactive: inhibition [1] 3% | inhibition [2] -5% | inhibition [3] 17% | inhibition [4] 16% | inhibition [5] 7% | inhibition [6] -5% | inhibition [7] 8% | inhibition (Rattus norvegicus) 12%

CC1=C(C#N)[C@@H](c2ccc3[nH]nc(C)c3c2)C(C#N)=C(c2ccc(Cl)cc2)N1 [BAY-827]
inactive: residual activity [8] 100% | residual activity [9] 88.1% | residual activity [10] 100% | residual activity [11] 100% | residual activity [12] 96.4% | residual activity [13] 100% | residual activity [14] 100% | residual activity [15] 100% | residual activity [16] 100% | residual activity [17] 100% | residual activity [18] 100% | residual activity [19] 100% | residual activity [20] 69.3% | residual activity [21] 100% | residual activity [22] 88.1% | residual activity [23] 100% | residual activity [24] 100% | residual activity [25] 100% | residual activity [26] 100% | residual activity [27] 95.6% | residual activity [28] 100% | residual activity [29] 91.4% | residual activity [30] 100% | residual activity [31] 85.3% | residual activity [32] 89.5% | residual activity [33] 100% | residual activity [34] 86.6% | residual activity [35] 100%
